The values that follow come from patent US20060206946A1, “Method of disrupting heme transport in nematodes and of modelling and evaluating eukaryotic heme transport” (priority 2005, published 2006).

Common to all, as to type: in vivo, Caenorhabditis elegans
The test system of one assay is R02E12.6. Briefly: qRT-PCR validation of heme-regulated genes (2^-ΔΔCt method). To be noted: low heme. As for the experimental part:
The initial statistical analysis of the Affymetrix genome array was performed at the NIDDK microarray facility using Affymetrix MAS 5.0 Suite software. […] To further narrow-down candidate genes, we eliminated 58 genes that are involved in worm developmental processes by comparing the data from the gene chip to the microarray data of S. Kim. See Kim, S. K. et al., Science 293, 2087-2092 (2001). […] These 280 genes were then sorted based on different categories of changes in gene expression (up, down or no change) seen in 4 μM versus 500 μM samples using 20 μM dataset as the baseline (Table XX). Protein sequence motif analysis (BLOCKS, PRINTS, Pfam), transmembrane (TM-HMM) and secondary structure predictions (ExPASy) proteomics tools are performed to identify domains and motifs within the predicted ORFs […] and the housekeeping gene Ct value: ΔCt=Ctsample−Ctreference. Relative mRNA abundance represents the difference between ΔCt values for a pair of conditions, i.e., 4 μM versus […]. Relative mRNA expression is exponential and defined by the formula [Mrna]=2^−ΔΔCt. […] The standard error for ΔΔCt will be calculated by the method of Livak and Schmittgen. […]

A further assay concerns C. elegans mutant IH1048. The assay is described as follows: Growth of heme resistant mutant in CeHR medium. Also noted: key to Growth 1.6 μM hemin / Growth 0.5 μM GaPP: + = wild type equivalent In growth; ND: No growth. As for the experimental part:
(§1) To further increase the stringency of our genetic screen we split the contents from each 800 μM hemin selection flasks into two flasks containing either 800 μM or 1000 μM hemin. This allowed us to use another tier of positive selection to identify mutants with greater resistance to heme toxicity. Mutants from each flask were isolated and treated as a separate entity by giving an identification number based on the Genetic Nomenclature Guidelines used for C. elegans (http://biosci.umn.edu/CGC/Nomenclature/nomenguid.htm). To eliminate EMS-induced spurious mutations that could result in false positive, the mutants were outcrossed to wild-type N2 males. After five outcrosses, which replaces ˜97% of the mutant genome, mutants that bred true were selected for further analysis. Using this procedure, we isolated 13 individual mutants that were resistant to heme toxicity. These mutants were further characterized by analyzing Mendelian segregation ratios, X-linkage, phenotype penetrance, generation times, brood size, and their ability to grow under low hemin. […] This observation was surprising because we anticipated that high heme-resistant mutants will grow poorly under low heme. Based on the mutant's growth profile at low and high heme levels, we broadly categorized them into three phenotypic classes: class A, class B and class C (FIG. 13). These “phenoclusters” have the following growth phenotype: (a) three mutants IH728, IH938, IH731 show with robust growth under low and high (≧800 μM heme (FIG. 13B), (b) one mutant IH828 show exceptional growth under low heme, moderate growth at ≦800 μM heme, and no growth at 1000 μM hemin (FIG. 13C), and (c) six mutants IH921, IH11058, IH1068n, IH1068d, IH1048, and IH718 that show moderate growth under high heme (≦800 μM), but normal growth under low heme (FIG. 13D). By classifying these mutants into phenoclusters, we can focus our efforts on the phenotypic datasets to map the molecular networks and pathways involved in heme dependent processes. For instance, mutants in a cluster may have mutations within the same gene or in multiple genes but within the same pathway.
(§2) Worm Culture and Growth Assays. Free-living worms were cultured in CeHR axenic liquid medium (Dr. Eric Clegg, Personal Communication). […] CeHR medium was modified (henceforth called mCeHR) to eliminate all sources of exogenously added heme; basal growth medium comprised 20 μM hemin chloride (Frontier Scientific, Logan, Utah) and 150 μM of ferrous ammonium sulfate (Sigma Chemicals). Worm strains were grown in mCeHR medium under aerobic conditions in tissue culture flasks at 20° C. ˜3.7×10^6 worms were routinely obtained after 3.5 to 4 days in a T75 flask with 30 ml basal medium from an initial inoculum of −1.5×10^5 worms. For initial culturing of worms in axenic media, three generations of worms were sequentially bleached (1.1% bleach/0.55 M NaOH) to eliminate any contaminating bacterial carryover from agar plates. In all dose-response experiments, worms were growth synchronized by treating the gravid hermaphrodite worms with bleach to dissolve adult worms. The eggs, resistant to bleach, were liberated from the carcasses and extensively washed with M9 buffer followed by overnight hatching in M9 buffer to synchronize growth. By harvesting at appropriate time intervals, synchronous larval stages and adult staged worms were collected for experimental manipulations. Identical numbers of synchronized L1 larvae were inoculated into media with different heme concentrations in 12- or 24-well culture plates. Worm growth was monitored each day and an aliquot was obtained for counting by microscopy usually at days 3, 6, and 9. The worms in each well were counted twice and each growth condition was analyzed in triplicate. P values for statistical significance were calculated utilizing a one-way ANOVA with Student-Newman-Keuls multiple comparison test using GraphPad Instat version 3.01. […]

Assay [1] has as its system C. elegans mutant IH1068 d. Briefly: Growth of heme resistant mutant in CeHR medium. Also noted: key to Growth 1.6 μM hemin / Growth 0.5 μM GaPP: + = wild type equivalent In growth; ND: No growth. As for the experimental part: as §1, §2
In assay [2] the test system is C. elegans mutant IH1068 n. Briefly: Growth of heme resistant mutant in CeHR medium. Details: key to Growth 1.6 μM hemin / Growth 0.5 μM GaPP: + = wild type equivalent In growth; ND: No growth. As for the experimental part:
as §1, §2

Consider hemin chloride, for which the “upregulation of R02E12.6 by qRT-PCR” value with R02E12.6 is given as above 40 fold. Further, the “Growth 1.6 μM hemin” value (with C. elegans mutant IH1048; in assay [1]; in assay [2]) was “+” throughout. In addition, the “Generation time (Days) 800 μM” value (in the assay on C. elegans mutant IH1048 (800 μM hemin); in assay [1] (800 μM hemin)) was 4 days in each case. Besides, in assay [1] (20 μM hemin, average in 24 well plates), the “brood size 20 μM” value is on record as 12.4. In assay [2] (20 μM hemin), the “Generation time (Days) 20 μM” value came to 4 days.
